# Results reported in PMC8195388, “Heterologous Expression of Cyclodextrin Glycosyltransferase my20 in Escherichia coli and Its Application in 2-O-α-D-Glucopyranosyl-L-Ascorbic Acid Production” (Frontiers in Microbiology, 2021).
# System: T1, recombinant CGTase MY20 (my20)
# T1 construct: codon-optimized my20 gene in pET-24a(+), E. coli BL21(DE3), intracellular, Ni-NTA purified
# Assay: AA-2G synthesis, HPLC […] nm, ping-pong fit
# Assay type: biochemical, metagenome: marine microorganisms, Mariana Trench
# Conditions: pH 5, 40°C
SMILES,"KmA (glucosyl acceptor, co-substrate beta-cyclodextrin 0.5-25 g/L)","KmB (glucosyl donor, co-substrate L-ascorbic acid 1-50 g/L)"
O=C1O[C@H]([C@@H](O)CO)C(O)=C1O [L-ascorbic acid],9.2 ± 0.06 g/L,–
OC[C@H]1O[C@@H]2O[C@H]3[C@H](O)[C@@H](O)[C@@H](O[C@H]4[C@H](O)[C@@H](O)[C@@H](O[C@H]5[C@H](O)[C@@H](O)[C@@H](O[C@H]6[C@H](O)[C@@H](O)[C@@H](O[C@H]7[C@H](O)[C@@H](O)[C@@H](O[C@H]8[C@H](O)[C@@H](O)[C@@H](O[C@H]1[C@H](O)[C@H]2O)O[C@@H]8CO)O[C@@H]7CO)O[C@@H]6CO)O[C@@H]5CO)O[C@@H]4CO)O[C@@H]3CO [β-CD],–,6.9 ± 0.04 g/L
